# Test results taken from paper PMC9823097, “Dysregulation of PRMT5 in chronic lymphocytic leukemia promotes progression with high risk of Richter’s transformation” (Nature Communications, 2023).
# Where “and” joins values, the source holds several entries; their conditions need not be identical. Equal values may be shown once.
# Assays:
# [1] = system: HG3 CLL cell line; assay: Global symmetric dimethyl arginine (SDMA) western blot, HG3; format: cell-based; settings: HG3, 72 h treatment
# Excerpt: Proteins extracted from whole-cell lysates were resolved by SDS-PAGE and transferred on nitrocellulose membrane as previously described. CpG685 oligonucleotide was obtained from the OSU Cytogenetics Core Lab. Antibodies used for immunoblots included anti-human PRMT5 (Abcam #ab109451), GAPDH (Millipore Sigma #MAB374), SDMA (Cell Signaling Technology #13222), c-Myc (Cell Signaling Technology #5605S), and β-Actin (Cell Signaling Technology #4967S). Cas9-mediated doxycycline-inducible knockout of PRMT5 utilized a targeted sgRNA (guide sequence: […], PAM: GGG).
# [2] = system: Mec-1 cells; assay: Cell growth curves over 12 days, Mec-1; format: cell-based
# Description: Live cells/mL were counted on days 3, 6, 10, and 12. […] The split factor was calculated at indicated time points by dividing the counted cells/mL by 3E5. Cell growth was extrapolated over time by multiplying the subsequent cell count by the previous split factor. Cell growth is plotted as fold change relative to DMSO-treated cells.
# [3] = system: Eµ-PRMT5/TCL1 Cd19+Cd5+ spleen cells engrafted into immunocompetent C57/BL6J mice; assay: Adoptive transfer of Eµ-PRMT5/TCL1 spleen cells into C57/BL6J mice, treatment study; format: in vivo
# Description: For adoptive transfer, viable Cd19^+Cd5^+ cells (5 × 10^6) from the spleen of an Eµ-PRMT5/TCL1 transgenic mouse with active CLL-like leukemia (>80% circulating in peripheral blood) and palpable splenomegaly were engrafted by tail vein into immunocompetent C57/BL6J female mice. Engrafted mice were randomly assigned to treatment conditions: PRT382 10 mg/kg, EPZ015666 50 mg/kg, or vehicle (0.5% methylcellulose, 0.1% tween) at 1-week post engraftment. All treatments were administered by oral gavage 4 contiguous days per week (Mon-Thurs). Predefined euthanasia criteria for mice in all transgenic colonies and murine transplant models were followed and included lethargy, impaired motility, splenomegaly, enlarged lymph nodes and/or superficial lymphoid tumors greater than 1.6 cm in diameter (or cumulative diameter of 1.6 cm if multiple tumors), decrease in body weight (>20%), ruffled fur, hunched back, failure to nest, and loss of appetite.
# [4] = Mec-1, continuous exposure over 12 days
structure (smiles),measurement,setting,value
"CON=c1nc[nH]c2c1ccn2[C@@H]1O[C@H]([C@H](O)c2ccc(Cl)c(Cl)c2)[C@@H](O)[C@H]1O.Cl [PRT382, (2 R,3 S,4 R,5 R)-2-[(R)-(3,4-dichlorophenyl)-hydroxy-methyl]-5-[(4Z)-4-methoxyimino-1H-pyrrolo[2,3-d]pyrimidin-7-yl]tetrahydrofuran-3,4-diol hydrochloride]",lowest dose with decrease in global SDMA residues,[1],100 nM
same,"anti-proliferative potency compared to JNJ-64619178, LLY-283, and PF-06855800",[2]; Mec-1,similar-to-reduced
same,Rep 1 Live Cells [Fold Change],"[2]; Mec-1, 1 nM, day 0",1 Fold Change
same,Rep 2 Live Cells [Fold Change],"[2]; Mec-1, 1 nM, day 0",1 Fold Change
same,Rep 3 Live Cells [Fold Change],"[2]; Mec-1, 1 nM, day 0",1 Fold Change
same,Rep 1 Live Cells [Fold Change],"[2]; Mec-1, 1 nM, day 3",5.48 Fold Change
same,Rep 2 Live Cells [Fold Change],"[2]; Mec-1, 1 nM, day 3",7.38 Fold Change
same,Rep 3 Live Cells [Fold Change],"[2]; Mec-1, 1 nM, day 3",6.82 Fold Change
same,Rep 1 Live Cells [Fold Change],"[2]; Mec-1, 1 nM, day 6",47.7 Fold Change
same,Rep 2 Live Cells [Fold Change],"[2]; Mec-1, 1 nM, day 6",61 Fold Change
same,Rep 3 Live Cells [Fold Change],"[2]; Mec-1, 1 nM, day 6",62.4 Fold Change
same,Rep 1 Live Cells [Fold Change],"[2]; Mec-1, 1 nM, day 10",655 Fold Change
same,Rep 2 Live Cells [Fold Change],"[2]; Mec-1, 1 nM, day 10",809 Fold Change
same,Rep 3 Live Cells [Fold Change],"[2]; Mec-1, 1 nM, day 10",898 Fold Change
same,Rep 1 Live Cells [Fold Change],"[2]; Mec-1, 1 nM, day 12",2650 Fold Change
same,Rep 2 Live Cells [Fold Change],"[2]; Mec-1, 1 nM, day 12",2940 Fold Change
same,Rep 3 Live Cells [Fold Change],"[2]; Mec-1, 1 nM, day 12",4480 Fold Change
same,Rep 1 Live Cells [Fold Change],"[2]; Mec-1, 10 nM, day 0",1 Fold Change
same,Rep 2 Live Cells [Fold Change],"[2]; Mec-1, 10 nM, day 0",1 Fold Change
same,Rep 3 Live Cells [Fold Change],"[2]; Mec-1, 10 nM, day 0",1 Fold Change
same,Rep 1 Live Cells [Fold Change],"[2]; Mec-1, 10 nM, day 3",8.13 Fold Change
same,Rep 2 Live Cells [Fold Change],"[2]; Mec-1, 10 nM, day 3",8.43 Fold Change
same,Rep 3 Live Cells [Fold Change],"[2]; Mec-1, 10 nM, day 3",7.78 Fold Change
same,Rep 1 Live Cells [Fold Change],"[2]; Mec-1, 10 nM, day 6",70.5 Fold Change
same,Rep 2 Live Cells [Fold Change],"[2]; Mec-1, 10 nM, day 6",65.2 Fold Change
same,Rep 3 Live Cells [Fold Change],"[2]; Mec-1, 10 nM, day 6",77.4 Fold Change
same,Rep 1 Live Cells [Fold Change],"[2]; Mec-1, 10 nM, day 10",909 Fold Change
same,Rep 2 Live Cells [Fold Change],"[2]; Mec-1, 10 nM, day 10",1080 Fold Change
same,Rep 3 Live Cells [Fold Change],"[2]; Mec-1, 10 nM, day 10",887 Fold Change
same,Rep 1 Live Cells [Fold Change],"[2]; Mec-1, 10 nM, day 12",3770 Fold Change
same,Rep 2 Live Cells [Fold Change],"[2]; Mec-1, 10 nM, day 12",3720 Fold Change
same,Rep 3 Live Cells [Fold Change],"[2]; Mec-1, 10 nM, day 12",6410 Fold Change
same,Rep 1 Live Cells [Fold Change],"[2]; Mec-1, 100 nM, day 0",1 Fold Change
same,Rep 2 Live Cells [Fold Change],"[2]; Mec-1, 100 nM, day 0",1 Fold Change
same,Rep 3 Live Cells [Fold Change],"[2]; Mec-1, 100 nM, day 0",1 Fold Change
same,Rep 1 Live Cells [Fold Change],"[2]; Mec-1, 100 nM, day 3",6.3 Fold Change
same,Rep 2 Live Cells [Fold Change],"[2]; Mec-1, 100 nM, day 3",5.17 Fold Change
same,Rep 3 Live Cells [Fold Change],"[2]; Mec-1, 100 nM, day 3",4.6 Fold Change
same,Rep 1 Live Cells [Fold Change],"[2]; Mec-1, 100 nM, day 6",14 Fold Change
same,Rep 2 Live Cells [Fold Change],"[2]; Mec-1, 100 nM, day 6",17.1 Fold Change
same,Rep 3 Live Cells [Fold Change],"[2]; Mec-1, 100 nM, day 6",13.3 Fold Change
same,Rep 1 Live Cells [Fold Change],"[2]; Mec-1, 100 nM, day 10",63 Fold Change
same,Rep 2 Live Cells [Fold Change],"[2]; Mec-1, 100 nM, day 10",155 Fold Change
same,Rep 3 Live Cells [Fold Change],"[2]; Mec-1, 100 nM, day 10",73.7 Fold Change
same,Rep 1 Live Cells [Fold Change],"[2]; Mec-1, 100 nM, day 12",100 Fold Change
same,Rep 2 Live Cells [Fold Change],"[2]; Mec-1, 100 nM, day 12",297 Fold Change
same,Rep 3 Live Cells [Fold Change],"[2]; Mec-1, 100 nM, day 12",92.2 Fold Change
same,Rep 1 Live Cells [Fold Change],"[2]; Mec-1, 1 µM, day 0",1 Fold Change
same,Rep 2 Live Cells [Fold Change],"[2]; Mec-1, 1 µM, day 0",1 Fold Change
same,Rep 3 Live Cells [Fold Change],"[2]; Mec-1, 1 µM, day 0",1 Fold Change
same,Rep 1 Live Cells [Fold Change],"[2]; Mec-1, 1 µM, day 3",3.87 Fold Change
same,Rep 2 Live Cells [Fold Change],"[2]; Mec-1, 1 µM, day 3",4.23 Fold Change
same,Rep 3 Live Cells [Fold Change],"[2]; Mec-1, 1 µM, day 3",5.4 Fold Change
same,Rep 1 Live Cells [Fold Change],"[2]; Mec-1, 1 µM, day 6",7.67 Fold Change
same,Rep 2 Live Cells [Fold Change],"[2]; Mec-1, 1 µM, day 6",5.09 Fold Change
same,Rep 3 Live Cells [Fold Change],"[2]; Mec-1, 1 µM, day 6",4.33 Fold Change
same,Rep 1 Live Cells [Fold Change],"[2]; Mec-1, 1 µM, day 10",8.99 Fold Change
same,Rep 2 Live Cells [Fold Change],"[2]; Mec-1, 1 µM, day 10",4.86 Fold Change
same,Rep 3 Live Cells [Fold Change],"[2]; Mec-1, 1 µM, day 10",2.73 Fold Change
same,Rep 1 Live Cells [Fold Change],"[2]; Mec-1, 1 µM, day 12",3.31 Fold Change
same,Rep 2 Live Cells [Fold Change],"[2]; Mec-1, 1 µM, day 12",4.55 Fold Change
same,Rep 3 Live Cells [Fold Change],"[2]; Mec-1, 1 µM, day 12",1.12 Fold Change
same,dose at which growth inhibition begins,[2]; [4],100 nM
same,effect on growth potential (cell growth),[2]; [4],time and dose-dependent growth inhibition
same,Week 1 CD19+/B220dim,"[3]; Figure 7F, per mouse, week 1, in % (unit assumed)",14.94 and 11.13 and 14.86 and 15.24 and 10.03 and 10.93 and 22.62 and 11.33 and 10.17 and 14.2
same,Week 2 CD19+/B220dim,"[3]; Figure 7F, per mouse, week 2, in % (unit assumed)",13.43 and 12.86 and 10.14 and 23.82 and 13.56 and 16.79 and 25.72 and 21.61 and 19.95 and 20.17
same,Week 3 CD19+/B220dim,"[3]; Figure 7F, per mouse, week 3, in % (unit assumed)",26.89 and 23.33 and 20.67 and 34.07 and 24.63 and 26.03 and 34.34 and 21.21 and 26.17 and 22.42
same,Week 4 CD19+/B220dim,"[3]; Figure 7F, per mouse, week 4, in % (unit assumed)",41.39 and 38.3 and 24.43 and 39.63 and 41.81 and 49.51 and 51.09 and 40.09 and 18.3 and 35.71
same,Week 5 CD19+/B220dim,"[3]; Figure 7F, per mouse, week 5",59.47 and 50.76 and 31.63 and 42.2 and 57.43 and 71.78 and 71.22 and 54.4 and 38.84 and 43.16
same,Week 6 CD19+/B220dim,"[3]; Figure 7F, per mouse, week 6, in % (unit assumed)",77.7 and 46.25 and 37.53 and 72.87 and 45.24 and 51.74 and 53.46 and 63.05 and 57.02 and 47.66
same,Week 7 CD19+/B220dim,"[3]; Figure 7F, per mouse, week 7, in % (unit assumed)",84.05 and 64.76 and 55.81 and 74.55 and 67.6 and 65.33 and 67.88 and 74.71 and 65.7 and 77.54
same,Week 8 CD19+/B220dim,"[3]; Figure 7F, per mouse, week 8",89.79 and 78.47 and 68.08 and 80.27 and 72.86 and 72.85 and 63.41 and 82.55 and 81.05 and 82.92
same,Week 9 CD19+/B220dim,"[3]; Figure 7F, per mouse, week 9",91.31 and 75.18 and 73.48 and 85.11 and 81.63 and 77.6 and 71.82 and 88.55 and 87.37 and 84.51
same,Week 10 CD19+/B220dim,"[3]; Figure 7F, per mouse, week 10, in % (unit assumed)",76.49 and 84.3 and 76.64 and 83.91 and 87.5 and 87.78 and 77.93 and 88.18 and 89.1 and 91.37
same,Week 11 CD19+/B220dim,"[3]; Figure 7F, per mouse, week 11, in % (unit assumed)",84.23 and 77.24 and 87.2 and 87.38 and 85.21 and 81.05 and 94.62 and 92.7 and 90.88
same,Week 12 CD19+/B220dim,"[3]; Figure 7F, per mouse, week 12",87.17 and 83.54 and 90.72 and 88.55 and 85.11
same,Week 13 CD19+/B220dim,"[3]; Figure 7F, per mouse, week 13, in % (unit assumed)",69.75 and 81.14 and 92.04 and 85.97 and 82.89
same,Endpoint,"[3]; Figure 7G, survival endpoint indicator, per mouse",1
same,Days since enrollment,"[3]; Figure 7G, survival, per mouse",64 days and 85 days and 92 days and 71 days and 84 days
same,Spleen weight,"[3]; Figure 7H, per mouse",0.86 g and 1.01 g and 0.37 g and 0.52 g and 0.24 g and 0.7 g and 0.84 g
same,survival compared to EPZ015666 or vehicle,[3]; PRT382 10 mg/kg,significant extension in survival
same,"hazard ratio, PRT382 vs EPZ015666 (Mantel–Cox)","[3]; PRT382 10 mg/kg vs EPZ015666 50 mg/kg, survival",0.65
same,"PRMT5 target modulation, immunoblot of splenic B cells","[3]; PRT382 10 mg/kg, EPZ015666 50 mg/kg",confirmed PRMT5 target modulation
same,Median survival post-enrollment,"[3]; PRT382 10 mg/kg, EPZ015666 50 mg/kg, oral gavage 4 contiguous days per week",77 days
same,"hazard ratio, PRT382 vs vehicle (Mantel–Cox)","[3]; PRT382 10 mg/kg, survival",0.21
same,spleen weight and volume compared to EPZ015666 or vehicle,[3]; at ERC,significantly reduced weight and volume
same,"leukemic expansion across non-lymphoid tissues (histopathology, liver)",[3]; compared with vehicle or EPZ015666-treated mice,decrease in leukemic expansion
same,Spleen volume,"[3]; individual mice, Supplemental Figure 6F",645.24 mm3 and 1183.96 mm3 and 457.289 mm3 and 271.152 mm3 and 253.789 mm3 and 859.967 mm3 and 562.493 mm3
same,rate of peripheral disease (CLL-like cells in peripheral blood),"[3]; weeks 2-7 post engraftment, compared to EPZ015666 or vehicle",reduced the rate of peripheral disease
